These results are taken from patent US10618874B2, “Compounds, cosmetic composition and pharmaceutical composition comprising the same” (INCOSPHARM CORPORATION, priority 2018, dated 2020).

For data set [1], the system named is LC3 (light chain 3; autophagy marker) in keratinocytes (HEKn). As to the kind of experiment: western blot on LC3 protein in keratinocytes (autophagy activation). It counts as cell-based, human. To be noted: FIG. 8. On the procedure: (§1) For intracellular autophagy analysis by treatment with Compound 1 obtained in the above Example, a western blot was performed on a LC3 (light chain 3; autophagy marker) protein. In addition, for analysis of change in endocytosis-related genes by treatment with Compound 2 obtained in the above Example, qPCR was performed on PAR2, AAK1 (AP2 Associated Kinase 1).
As a specific experimental method, keratinocytes (HEKn, cat # C0015C, Gibco) was treated with Compound 1 and dissolved using a cell lysis buffer containing a proteolysis inhibitor. The entire dissolved solution was fractionized using a centrifuge and only the solution containing proteins was extracted. The extracted proteins were quantified by a bicinchoninic acid (BCA) method. 20 μg of proteins were separated by 10% SDS-polyacrylamide gel electrophoresis and transferred to a nitrocellulose film. The film to which the proteins were transferred was blocked by a tris-buffered saline/0.05% Tween-20 (TBS-T) solution containing 5% non-fat milk for decreasing a non-specific bonding at room temperature for 1 hour, and then a primary antibody was reacted under the condition of 4° C. overnight and a secondary antibody was reacted at room temperature for 1 hour. For visualization, an enhanced chemiluminescence system was used.

The subject of data set [2] is human-derived keratinocytes (HEKn). The experiment in a line: melanin pigmentation in keratinocytes after melanin treatment. The format is cell-based. The conditions noted are these: 48 hours treatment, then melanin 2 hours; absorbance 400 nm; FIG. 9. On the procedure:
In order to analyze how Compound 1 and Compound 2 obtained in the above Examples affect melanin pigmentation, a degree of pigmentation inhibition by melanin treatment was analyzed.
As a specific experimental method, human-derived keratinocytes (HEKn, cat # C0015C, Gibco) were constantly deposited to the number of 1×10^5 in a 6 well plate for culturing and cultured in an incubator for 24 hours under the condition of […] and 5% CO2 in EpiLife (cat # MEPI500CA, Gibco). Each of Compound 1 or Compound 2 obtained in the above Examples was dissolved at a concentration of 100 mM to form a concentration solution, which was diluted in a medium at a concentration of 20 μM, 1 ml of each diluted solution was added to each well containing 1 ml of the medium first for treatment and cultured for 48 hours, and 10 mg/ml of melanin was added by 2 μl at a time and culturing was further performed for 2 hours. The medium was removed after completion of culturing, cells were separated from the plate using Trypsin-EDTA (cat # LS-015-09, WELGENE), transferred to a 1.5 ml tube and spun down, a photograph of the pellet was taken, and the absorbance of a solution of the pellet dissolved in 1N NaOH was measured (wavelength: 400 nm, Epoch, BioTek).

Data set [3] relates to human-derived melanin cells (HEMn-DP); MITF, Tyrosinase mRNA. As to the kind of experiment: melanosome maturation-related genes (qPCR) and melanin content in melanin cells. It counts as cell-based. The conditions noted are these: 1 ml of 20 μM added to 1 ml medium, 48 hours, FIGS. 5 to 7. The procedure:
In order to analyze how Compound 1 and Compound 2 obtained in the above Examples affect melanosome maturation, an amount of melanosome maturation-related mRNA after treated with Compound 1 and Compound 2 was analyzed with qPCR and a melanin content was measured with absorbance.
As a specific experimental method, human-derived melanin cells (HEMn-DP, cat # C2025C, Gibco) were constantly deposited to the number of 1×10^5 in a 6 well plate for culturing and cultured in an incubator for 24 hours under the condition of 37° C. and 5% CO2 in M254 (cat # M-254-500, Gibco). Each of Compound 1 and Compound 2 was dissolved in DW at a concentration of 100 mM to form a concentration solution, which was diluted in a medium at a concentration of 20 μM, 1 ml of each diluted solution was added to each well containing 1 ml of the medium first for treatment and cultured for 48 hours, and RNeasy mini kit (cat #74106, QIAGEN) was used to extract RNA from melanin cells. […] Then, the experiment was performed identically, the medium was removed after completion of culturing, melanin cells were separated from the plate using Trypsin-EDTA (cat # LS-015-09, WELGENE), transferred to a 1.5 ml tube, and spun down, a photograph of the pellet was taken, and the absorbance of a solution of the pellet dissolved in 1N NaOH was measured (wavelength: 400 nm, Epoch, BioTek).
(In general: In qPCR the cycle at which signal appears reflects the starting amount.)

The test system of data set [4] is melanin cells (human primary melanocyte, HEMn-DP). As to the kind of experiment: MTT assay in melanocytes. It counts as cell-based. The conditions noted are these: 5, 10 and 50 μM, 4 days, FIG. 3. On the procedure: (§2) In order to confirm a treatment concentration of Compound and Compound 2 obtained in the above Examples having no cytotoxicity thereby, an MTT assay was performed.
(§3) As a specific experimental method, in order to confirm cytotoxicity depending on the treatment concentration of Compound 1 and Compound 2, apoptosis analysis was performed in melanin cells (human primary melanocyte, HEMn-DP, cat # C2025C, Gibco) and keratinocytes (human primary keratinocyte, HEKn, cat # C0015C, Gibco). Cells were deposited to the number of 1×10^4 cells/well in a 96 well plate and cultured in an incubator for 24 hours under the condition of 37° C. and 5% CO2.
(§4) Each of Compound 1 and Compound 2 obtained in the above Examples was dissolved in distilled water (DW) at a concentration of 100 mM to form a concentrated solution, which was diluted with a medium, and treatment was performed at concentrations of 5, 10, and 50 μM. After 4 days, the medium of the plate was removed and the plate was treated with 100 μl of an MTT reagent (Sigma, 0.5 mg/ml). After 4 hours, the reagent was removed, dimethyl sulfoxide (DMSO) was added thereto, and absorbance was measured (wavelength: 570 nm, Epoch, BioTek). Here, cell viability was calculated as a percentage to absorbance of a control group (blank) which was not treated with the compound.
Background: Tetrazolium dyes change colour on reduction, which living cells bring about.

The next data set deals with mushroom tyrosinase. The experiment in a line: tyrosinase activity inhibition assay. The format is biochemical. To be noted: 10, 100, 1000 and 10000 ppm; 37° C., 1 hour; FIG. 2. The procedure:
As a specific experimental method, mushroom tyrosinase was diluted with a 0.1 M sodium phosphate buffer at 2 unit/ul and dissolved in water at 0.03 wt % of tyrosine. Each experiment group listed in the following Table 1 was also diluted in the 0.1 M sodium phosphate buffer at 10, 100, 1000, and 10000 ppm and mixed as listed in Table 1. Reaction was performed at 37° C. for 1 hour and absorbance was measured, respectively (wavelength: 490 nm, Epoch, BioTek). Based on the results, a tyrosinase inhibition ratio relative to a control group was calculated. [table]

Data set [5] deals with keratinocytes (HEKn) with ATG5 knocked down. As to the kind of experiment: melanin pigmentation inhibition and autophagy proteins in ATG5 knocked-down keratinocytes. The format is cell-based, human. To be noted: 10 μM, FIG. 10; for expression activity of LC3-II and ATG5: western blot. From the text: In order to analyze whether melanin deposition inhibition activity on keratinocytes by treatment with Compound 1 and Compound 2 depends on autophagy activation, ATG5 which is the protein required for autophagy activation was knocked down and treated with melanin to analyze a pigmentation inhibition activity change.
As a specific experimental method, ATG5 siRNA was mixed according to the method of transfection reagent (RNAiMAX, cat #13778-075, Thermo) and deposited in keratinocytes (HEKn, cat # C0015C, Gibco). After 8 hours, Compound 1 and Compound 2 were diluted with Epilife (cat # MEPI500CA, Gibco) without a supplement and an antibiotic to a final concentration of 10 μM for treatment, and cells which were further cultured for 64 hours were dissolved using a cell lysis buffer containing a proteolysis inhibitor. The entire dissolved solution was fractionized using a centrifuge and only the solution containing proteins was extracted. The extracted proteins were quantified by a bicinchoninic acid (BCA) method. 20 μg of proteins were separated by 10% SDS-polyacrylamide gel electrophoresis and transferred to a nitrocellulose film. The film to which the proteins were transferred was blocked by a tris-buffered saline/0.05% Tween-20 (TBS-T) solution containing 5% BSA (bovine serum albumin, Gendepot, Cat # A0100-010) for decreasing a non-specific bonding at room temperature for 1 hour, and then a primary antibody was reacted under the condition of 4° C. overnight and a secondary antibody was reacted at room temperature for 1 hour. For visualization, an enhance chemiluminescence system was used. Then, in order to analyze melanin pigmentation inhibition activity, transfection and treatment with the compounds were performed identically, and then 10 mg/ml of melanin was added by 2 μl at a time and culturing was further performed for 2 hours. The culture medium was removed after completion of culturing, cells were separated from the plate using Trypsin-EDTA (cat # LS-015-09, WELGENE), transferred to a 1.5 ml tube and spun down, a photograph of the pellet was taken, and the absorbance of a solution of the pellet dissolved in 1N NaOH was measured (wavelength: 400 nm, Epoch, BioTek).
(In general: A western blot detects proteins with antibodies after separation by electrophoresis.)

Data set [6] concerns keratinocytes (human primary keratinocyte, HEKn). The experiment in a line: MTT assay in keratinocytes. It counts as cell-based. The conditions noted are these: 5, 10 and 50 μM, 4 days, FIG. 4. The procedure:
as §2, §3, §4

The test system of another data set is keratinocytes (HEKn). The experiment in a line: melanosome degradation: confocal and transmission electron microscopy of keratinocytes given melanosomes. The format is cell-based, human. The conditions noted are these: 10 μM; confocal microscope; FIG. 11. On the procedure: In order to confirm whether melanosome and autuphagosome are co-localized by treatment with Compound 1 and Compound 2 obtained in the above Examples, analysis was performed with an electron microscope and a confocal microscope.
As a specific experimental method, Lysis Buffer (Tris 20 mM, NaCl 150 mM, EDTA 1 mM, sucrose 250 mM in DW) was added to melanin cells (HEMn-DP, cat # C2025C, Gibco) containing human-derived melanin at high concentration, freezing and thawing were repeated twice to break a cell membrane, and centrifugation was performed at 1000×g for 5 minutes, thereby obtaining a supernatant. Cushion Buffer (Tris 20 mM, NaCl 150 mM, EDTA 1 mM, sucrose 1.5M in DW) was placed in an ultracentrifuge tube, the same amount of supernatant was added thereto, and then centrifugation was performed under the conditions of 25,000 rpm, […], and 4° C., thereby obtaining melanosomes. The concentration of melanosomes was measured using synthesized melanin (cat # M8631, sigma) as a standard. Keratinocytes (HEKn, cat # C0015C, Gibco) was deposited in a 6 well by 1×10^5 cells/well at a time and cultured for one day. Treatment with 10 μM of Compound 1 and compound 2 each was performed, culturing was performed for one day, separated melanosomes (5 μg/well) was added, and culturing was further performed for 2 days. […]

In data set [7] the test system is PAR-2 gene in keratinocytes (HEKn). The experiment in a line: qPCR of endocytosis-related gene PAR2 in keratinocytes. The format is cell-based, human. The conditions noted are these: FIG. 8. The procedure:
as §1
As a specific experimental method, from keratinocytes (HEKn, cat # C0015C, Gibco) treated with Compound 2, RNA was extracted using a RNeasy mini kit (cat #74106, QIAGEN), cDNA was synthesized using a cDNA synthesis kit (cat # FSQ-201, TOYOBO), and then a PAR2(F: CTCTCCTGCAGTGGCACCAT; R: GATGTGCCATCAACCTTACCAA) primer and POWER SYBR MASTER MIX (cat #4367659, Thermo) were mixed at a recommended ratio with the synthesized cDNA, and qPCR was performed with QuantStudio 3 equipment (cat # A28131, Thermo).

Consider `CC(=O)N1C[C@H](O)C[C@H]1C(=O)NCCCC[C@H](NC(=O)[C@H](CCCCN(CC(=O)O)CC(=O)O)N(CC(=O)O)CC(=O)O)C(=O)O` [Compound 1], for which the “production of LC3-II (matured autophagosome)” value in data set [1] is on record as “increased”. The “melanin pigmentation on keratinocytes” value in data set [2] is listed as “effectively inhibited”. Also, the “influence on melanosome maturation activity (tyrosinase and MITF mRNA, melanin content)” value in data set [3] is recorded as “almost no influence”. The “cytotoxicity (MTT, cell viability)” value in data set [4] is given as “almost no cytotoxicity”. Besides, in the data set with mushroom tyrosinase, the tyrosinase activity inhibition result is “did not inhibit tyrosinase activity”. Moreover, in data set [5], the “melanin amount in keratinocytes” value is reported as “not decreased”; the “expression activity of LC3-II and ATG5” value is given as “inhibited”. Besides, in [6], the “cytotoxicity (MTT, cell viability)” value is listed as “almost no cytotoxicity”. The “co-localization of increased autophagosomes with melanosomes” value with keratinocytes (HEKn) is “co-localized with melanosomes”.

`O=C(O)CN(CCCC[C@@H](C(=O)N1C[C@H](O)C[C@H]1C(=O)O)N(CC(=O)O)CC(=O)O)CC(=O)O` [Compound 2]: in data set [2], the “melanin pigmentation on keratinocytes” value is given as “effectively inhibited”. The “influence on melanosome maturation activity (tyrosinase and MITF mRNA, melanin content)” value in data set [3] is given as “almost no influence”. Moreover, the “expression of the PAR-2 gene” value in [7] was “decreased”. In addition, the “cytotoxicity (MTT, cell viability)” value in data set [4] and in data set [6] was “almost no cytotoxicity” in each case. Also, the tyrosinase activity inhibition entry in the data set with mushroom tyrosinase is reported as “did not inhibit tyrosinase activity”. Moreover, in data set [5], the “melanin amount in keratinocytes” value was “not decreased”. Further, the “expression activity of LC3-II and ATG5” value in data set [5] was “inhibited”. Moreover, the “co-localization of increased autophagosomes with melanosomes” value in the data set on keratinocytes (HEKn) is on record as “co-localized with melanosomes”.
